We go through 4 molecules from ChEMBL document CHEMBL5244252, “PROTAC: A promising technology for cancer treatment” (Eur J Med Chem, 2020).

For assay [1], the target named is von Hippel-Lindau disease tumor suppressor/Steroid hormone receptor ERR1 (Homo sapiens) (UniProt P11474+P40337). In words: Protac activity at VHL/ERRalpha in human MCF7 cells assessed as maximum degradation. The class given is cell-based.
Assay [2] deals with T1, Steroid hormone receptor ERR1 (Homo sapiens) (UniProt P11474).
T1 sequence (whole entry): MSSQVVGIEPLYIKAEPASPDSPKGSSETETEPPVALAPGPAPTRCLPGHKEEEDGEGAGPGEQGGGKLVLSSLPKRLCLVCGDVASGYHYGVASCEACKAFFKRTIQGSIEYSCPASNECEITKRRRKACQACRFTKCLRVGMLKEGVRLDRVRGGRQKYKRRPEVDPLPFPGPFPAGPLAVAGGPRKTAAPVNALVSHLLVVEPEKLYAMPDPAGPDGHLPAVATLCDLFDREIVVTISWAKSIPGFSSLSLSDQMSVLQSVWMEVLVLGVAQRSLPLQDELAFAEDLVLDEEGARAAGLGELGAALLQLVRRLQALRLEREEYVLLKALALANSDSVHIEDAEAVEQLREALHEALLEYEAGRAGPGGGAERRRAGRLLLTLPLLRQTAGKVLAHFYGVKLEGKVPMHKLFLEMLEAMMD
In words: In vivo protac activity at ERRalpha in human MDA-MB-231 cells xenografted mouse assessed as reduction in ERRalpha level in tumor at 100 mg/kg, ip administered 3 times a day. More on the design: scale not given: the % may be the effect or the level left. It counts as functional, organism-based. In general terms: A xenograft is tissue or cells of one species grown in another, often human tumour cells in immunodeficient mice.

The nature of assay [3]: Antiproliferative activity against human HBL1 cells expressing BTK C481S mutant assessed as growth inhibition. It counts as functional.
Assay [4] has as its target Cellular tumor antigen p53 (Homo sapiens) (UniProt P04637). In words: Induction of p53 stabilization in human HCT-116 cells assessed as fold increase by Western blot analysis. It counts as cell-based. (In general: Immunoblotting shows a protein as a band on a membrane.)

One may read the Emax as the maximal effect, on the per cent scale that the assay sets. One may read the GI50 as the concentration that inhibits growth by half.

Each structure is given as a SMILES string.

Sequence of Cellular tumor antigen p53 (Homo sapiens) (P04637 whole entry, looked up): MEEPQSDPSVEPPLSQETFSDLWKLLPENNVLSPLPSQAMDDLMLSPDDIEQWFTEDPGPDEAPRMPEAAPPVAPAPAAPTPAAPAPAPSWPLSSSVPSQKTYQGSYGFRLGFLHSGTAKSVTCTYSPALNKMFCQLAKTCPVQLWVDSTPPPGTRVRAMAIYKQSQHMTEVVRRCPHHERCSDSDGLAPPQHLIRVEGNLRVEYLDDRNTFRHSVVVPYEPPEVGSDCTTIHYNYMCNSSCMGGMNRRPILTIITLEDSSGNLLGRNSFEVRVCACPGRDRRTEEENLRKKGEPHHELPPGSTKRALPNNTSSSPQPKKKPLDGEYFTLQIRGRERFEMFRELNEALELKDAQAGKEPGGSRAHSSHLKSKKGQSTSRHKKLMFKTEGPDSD
Sequence of von Hippel-Lindau disease tumor suppressor/Steroid hormone receptor ERR1 (Homo sapiens) (P40337 whole entry, looked up, one chain of several): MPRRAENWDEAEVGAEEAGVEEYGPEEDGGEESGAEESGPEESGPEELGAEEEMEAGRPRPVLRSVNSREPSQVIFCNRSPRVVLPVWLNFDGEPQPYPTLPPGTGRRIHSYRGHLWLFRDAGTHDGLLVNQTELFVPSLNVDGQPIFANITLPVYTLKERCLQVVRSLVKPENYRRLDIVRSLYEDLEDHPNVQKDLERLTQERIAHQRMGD

For the molecule `COc1cc(/C=C2/SC(=O)N(CCOCCC(=O)N[C@@H](C(=O)N3C[C@H](O)C[C@H]3C(=O)Nc3ccc(-c4scnc4C)cc3)C(C)(C)C)C2=O)ccc1Oc1ccc(C#N)cc1C(F)(F)F`, the Emax in assay [1] turned out to be 86%. Also, the Activity in assay [2] amounted to 39%.

Regarding `C=CC(=O)N1CCC[C@@H](n2nc(-c3ccc(Oc4ccccc4)cc3)c3c(N)ncnc32)C1` [IBRUTINIB], the GI50 in assay [3] was determined as 700 nM.

In the case of `COc1cc(C(=O)NCCOCCOCCOCCNC(=O)C[C@@H]2N=C(c3ccc(Cl)cc3)C3C(C)=C(C)SC3n3c(C)nnc32)ccc1NC(=O)[C@@H]1N[C@@H](CC(C)(C)C)[C@](C#N)(c2ccc(Cl)cc2F)[C@H]1c1cccc(Cl)c1F` (stereo not given in full), in assay [4], the fold change (FC) worked out at 5.9.

As to `Nc1ncnc2c1c(-c1ccc(Oc3ccccc3)cc1)nn2[C@@H]1CCCN(C(=O)c2cn(CCOCCOCCOCCNc3cccc4c3C(=O)N(C3CCC(=O)NC3=O)C4=O)nn2)C1` (stereo not given in full), the GI50 in assay [3] turned out to be 28 nM.
